Assay results published in ChEMBL document CHEMBL1132849, “Amidinohydrazones as guanidine bioisosteres: application to a new class of potent, selective and orally bioavailable, non-amide-based small-molecule thrombin inhibitors” (Bioorg Med Chem Lett, 2000).
Where “and” joins values, the source holds several entries; their conditions need not be identical. Equal entries are not always repeated.

Assays:
[1] = Oral bioavailability in dog; format: ADME, organism-based, Canis lupus familiaris; conditions: in vivo
[2] = pKa was evaluated; format: physicochemical
[3] = The compound was tested for time taken to decrease, half of its initial concentration in dog plasma.; format: ADME, organism-based, Canis lupus familiaris
[4] = The compound was tested for clearance in dog plasma.; format: ADME, organism-based, Canis lupus familiaris
[5] = The compound was tested for maximum concentration ( Cmax ) in dog plasma.; format: ADME, organism-based, Canis lupus familiaris
[6] = species: Canis familiaris; test: Vss in dog; format: ADME, organism-based, Canis lupus familiaris; conditions: in vivo
[7] = Dose at which bioavailability of intravenously administered compound was tested in rabbit; format: ADME, organism-based, Oryctolagus cuniculus; conditions: in vivo, iv
[8] = Dose at which bioavailability of perorally administered compound was tested in rabbit; format: ADME, organism-based, Oryctolagus cuniculus; conditions: in vivo, po
[9] = The compound was tested for its bioavailability in rabbit (by oral dosage).; format: ADME, organism-based, Oryctolagus cuniculus; conditions: in vivo
[10] = species: Canis familiaris; test: The compound was tested for clotting time thrombin(TCT); format: functional, Canis lupus familiaris
[11] = tested on: Canis familiaris; test: Time at which maximal (1.6 fold increase) prolong clotting time was observed after peroral administration of compound (30 mg/kg) in dog; format: functional, Canis lupus familiaris
[12] = tested on: Oryctolagus cuniculus; test: Prolongation of thrombin clotting time (to 1.9x over control), 60 min after peroral administration (30 mg/kg); format: functional
[13] = tested on: Oryctolagus cuniculus; test: Prolongation of thrombin clotting time (to 1.9x over control), after peroral administration (30 mg/kg); format: functional
[14] = Percent oral bioavailability of intravenously administered compound (6 mg/kg) was tested in dog; format: ADME, organism-based, Canis lupus familiaris; conditions: in vivo, intravenous, read-out: Bioavailabiility
[15] = Partition coefficient ( LogP) of the compound; format: physicochemical; conditions: octanol/water
[16] = molecular target: Prothrombin (Homo sapiens, UniProt P00734); test: Inhibitory constant against human alpha thrombin
[17] = species: Canis familiaris; test: Vss was determined; format: ADME, organism-based, Canis lupus familiaris; conditions: dog, in vivo
[18] = tested on: Canis familiaris; test: Time at which maximal (4 fold increase) prolong clotting time was observed after peroral administration of compound (30 mg/kg); format: functional, Canis lupus familiaris
[19] = tested on: Canis familiaris; test: Anticoagulation (1.2 fold increase) after peroral administration of compound (30 mg/kg); format: functional, Canis lupus familiaris
[20] = tested on: Canis familiaris; test: Anticoagulation (1.6 fold increase) after peroral administration of compound (30 mg/kg); format: functional, Canis lupus familiaris
[21] = Percent oral bioavailability of perorally administered compound (30 mg/kg) was tested; format: ADME, organism-based; conditions: in vivo, read-out: Bioavailabiility

Q: Which results are given for Cc1cc(OCC/C=N/N=C(N)N)cc(OS(=O)(=O)c2ccccc2Cl)c1?
A: bioavailability [1]: 23%; pKa [2]: 8.71; half-life [3]: 1260 min; clearance [4]: 39 mL/min/kg; Cmax [5]: 1800 nM; Vss [6]: 3.5 k; Dose [7]: 6 mg/kg; Dose [8]: 30 mg/kg; bioavailability [9]: 60%; TCT [10]: 34 s and 21 s; Time [11]: 2 h; TCT [12]: 50 s; TCT [13]: 26 s; bioavailability [14]: 23%; logP [15]: 2.34

Q: For COc1cc(CCC/C=N/N=C(N)N)cc(OS(=O)(=O)c2ccccc2Cl)c1, which Ki [16] is on record?
A: 990 nM

Q: For COc1ccccc1S(=O)(=O)Oc1cc(C)cc(OCC/C=N/N=C(N)N)c1, which Ki [16] is on record?
A: 11 nM

Q: With Cc1cc(OCC/C=N/N=C(N)N)cc(OCc2ccccc2C(F)(F)F)c1 as the molecule, how does the Ki [16] read?
A: 420 nM

Q: Which Ki [16] does the source give for Cc1cc(OCC2(/C=N/N=C(N)N)CC2)cc(OS(=O)(=O)c2ccccc2C#N)c1 here?
A: 40 nM

Q: With Cc1cc(OCC/C=N/N=C(N)N)cc(OS(=O)(=O)c2ccccc2C#N)c1 as the molecule, how does the bioavailability [1] read?
A: 21%

Q: What about the pKa [2] of the same molecule?
A: 8.84

Q: And the half-life [3]?
A: 1140 min

Q: And the clearance [4]?
A: 79 mL/min/kg

Q: What about the Cmax [5] of the same molecule?
A: 900 nM

Q: And the Vss [17]?
A: 23 k

Q: And the Time [18]?
A: 1 h

Q: And the Time [19]?
A: 24 h

Q: What about the Time [20] of the same molecule?
A: 8 h

Q: And the bioavailability [21]?
A: 21%

Q: And the logP [15]?
A: 2.11

Q: Which Ki [16] does the source give for Cc1cc(OCC/C=N/N=C(N)N)cc(OS(=O)(=O)c2cccc(C)c2)c1 here?
A: 6 nM

Q: With Cc1cc(OCC/C=N/N=C(N)N)cc(OS(=O)(=O)c2cccc(Cl)c2Cl)c1 as the molecule, how does the Ki [16] read?
A: 9.4 nM

Q: For Cc1cc(OCC/C=N/N=C(N)N)cc(OS(=O)(=O)c2cccc3ccccc23)c1, which Ki [16] is on record?
A: 44 nM

Q: For Cc1cc(OCC/C=N/N=C(N)N)cc(OS(=O)(=O)c2ccccc2S(C)(=O)=O)c1, which Ki [16] is on record?
A: 20 nM

Q: With Cc1cc(OCC/C=N/N=C(N)N)cc(OS(=O)(=O)c2ccccc2OC(F)(F)F)c1 as the molecule, how does the Ki [16] read?
A: 11 nM

Q: For COc1ccccc1S(=O)(=O)Oc1cc(C)cc(OC/C=N/N=C(N)N)c1, which Ki [16] is on record?
A: > 1000 nM

Q: Which Ki [16] does the source give for Cc1cc(OCC/C=N/N=C(N)N)cc(OS(=O)(=O)c2cccnc2)c1 here?
A: 36 nM
